From paper PMC4470815, “Selective Cytotoxicity of 1,3,4-Thiadiazolium Mesoionic Derivatives on Hepatocarcinoma Cells (HepG2)” (PLoS ONE, 2015) come the findings set out here.

For this assay, the target named is T1, ABCG2 (Homo sapiens, UniProt Q9UNQ0).
T1 sequence (Q9UNQ0 1-655): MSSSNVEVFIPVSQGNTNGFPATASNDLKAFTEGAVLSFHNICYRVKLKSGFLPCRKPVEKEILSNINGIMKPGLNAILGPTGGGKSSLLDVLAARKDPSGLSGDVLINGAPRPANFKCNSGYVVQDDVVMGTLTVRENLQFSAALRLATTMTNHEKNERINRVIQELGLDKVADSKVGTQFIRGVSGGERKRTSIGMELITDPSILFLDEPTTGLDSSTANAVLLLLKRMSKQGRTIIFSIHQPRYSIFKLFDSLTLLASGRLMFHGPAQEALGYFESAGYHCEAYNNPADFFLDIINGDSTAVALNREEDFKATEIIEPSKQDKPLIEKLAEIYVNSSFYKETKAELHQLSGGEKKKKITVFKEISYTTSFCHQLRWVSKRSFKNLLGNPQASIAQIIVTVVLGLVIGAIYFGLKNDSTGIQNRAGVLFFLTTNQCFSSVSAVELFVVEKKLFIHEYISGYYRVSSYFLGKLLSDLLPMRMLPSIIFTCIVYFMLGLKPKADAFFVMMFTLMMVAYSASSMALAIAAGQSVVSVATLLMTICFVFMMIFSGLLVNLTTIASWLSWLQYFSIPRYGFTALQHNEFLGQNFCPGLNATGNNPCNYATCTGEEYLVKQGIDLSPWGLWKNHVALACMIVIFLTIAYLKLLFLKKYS
The assay is described as follows: inhibition of mitoxantrone efflux in HEK293ABCG2 cells, flow cytometry. Type of assay: cell-based. The note with it: read-out: ABCG2 / EC50. A general note: A flow cytometer gives signals particle by particle.

As to `O=[N+]([O-])c1ccc(/C=C/c2sc(Nc3ccccc3)n[n+]2-c2ccccc2)cc1` [MI-D, 4-phenyl-5-(4-nitrocinnamoyl)-1,3,4-thiadiazolium-2-phenylamine chloride], the IC50 was 24.3 ± 9.6 µM. To `Oc1ccc(/C=C/c2sc(Nc3ccccc3)n[n+]2-c2ccccc2)cc1` [MI-J] belongs 8.5 ± 4.8 µM.
